Values belong to the compound of their own block, whether it stands above or below them.
Columns and labels:
[1] = method code SF-AS, from DOI: 10.1002/jps.2600790421, PMID: 2352153
[2] = method code SF-AS, from DOI: 10.1007/bf00165040, PMID: 3033523; details: pH 7.4
[3] = method code SF-HPLC, from PMID: 1515051; details: pH 6.0
[4] = method code SF-HPLC, from DOI: 10.1016/0006-2952(84)90322-8, PMID: 6704182
[5] = method code SF-AS, from DOI: 10.1002/jps.2600650731; details: pH 11.5
[6] = method code SF-AS, from PMID: 3699148; details: pH 7.4
[7] = method code SF-HPLC, from DOI: 10.1021/jm00112a026, PMID: 1875345; details: pH 7.4
[8] = method code SF-AS, from DOI: 10.1007/bf01067967, PMID: 3820093; details: pH 7.5
[9] = method code SF-AS, from DOI: 10.1021/jm00075a005, PMID: 8246220; details: pH 7.4
[10] = method code SF-AS, from DOI: 10.1111/j.1476-5381.1988.tb11523.x, PMID: 2900037
[11] = not given; remark: listed apart in the source
[12] = method code SF-EPR, from DOI: 10.1007/bf01870789, PMID: 2549250; details: pH 12.0
[13] = method code SF-CR, from DOI: 10.1248/cpb.21.2417, PMID: 4779830; details: pH 6.0
[14] = not given; remark: listed apart in the source
[15] = method code SF-AS, from KuchaÅ™, M.; Rejholec, V.; Miller, V. (1985). Chromatographically determined lipophilicity and intramolecular interactions of bioactive compounds. Pharmacochemistry Library, 8, 321-331.; details: pH 3.4
[16] = method code SF-RC, from DOI: 10.1016/s0969-8051(98)00096-1, PMID: 10100217; details: pH 7.4
[17] = method code SF-NMR, from DOI: 10.1021/jm00157a023, PMID: 3806574
[18] = method code SF-CR+DM, from DOI: 10.1021/ja01573a017; details: pH 6.5
[19] = not given; remark: listed apart in the source
[20] = method code SF-GLC, from DOI: 10.1007/bf00224496
[21] = method code SF-GLC, from DOI: 10.1021/je970069v
[22] = not given; remark: listed apart in the source
[23] = method code SF-HPLC, from DOI: 10.1080/01483919108049396; details: pH 7.0
[24] = method code SF-AS, from DOI: 10.1002/ddr.430140205; details: pH 7.4
[25] = method code SF-AS, from DOI: 10.1021/jm00047a013, PMID: 7932583
[26] = method code SF-AS, from DOI: 10.1021/jm00163a043, PMID: 2153206; details: pH 7.0
[27] = method code SF-AS, from DOI: 10.1016/s0021-9673(00)82600-x

Compound: O=NN(CCCl)C(CC(=O)NCCCl)C(=O)NC(=O)NCCCl (stereo not drawn)
logP [1]: 3.15

logD [2]: -2.03
Compound: CSc1nc2c(N)ncnc2n1C1OC2COP(=O)(O)OC2C1O (stereo not drawn)

logD [3]: 2.98
Compound: CCCOC(=O)n1c(-c2cscn2)nc2ccccc21

logP [4]: -0.8
Compound: CC(=O)OC[C@H]1O[C@@H](n2ccc(N)nc2=O)[C@@H](OC(C)=O)[C@@H]1OC(C)=O

logD [5]: 1.58
Compound: CN(C(=N)N)/C(N)=N/c1ccc(Cl)cc1

logD [6]: -0.05
Compound: NC(=O)c1ccccc1NCCO

logD [2]: -0.98
Compound: Nc1ncnc2c1nc(Sc1ccc(Cl)cc1)n2[C@@H]1O[C@@H]2COP(=O)(O)O[C@H]2[C@H]1O

Compound: OC(CN1C2CCc3ccccc3C21)Cn1ccnc1 (stereo not drawn)
logD [7]: 2.15

Compound: Nc1ccc2ccccc2c1
logD [8]: 2.4

logD [9]: 2.23
Compound: COc1ccc(CON2C(=O)CC3(CCCC3)C2=O)cc1

Compound: CON(C)C(=O)Nc1ccc(Cl)cc1
logP: 2.16

logD ([10]; pH 9.0): -0.15
Compound: CNC(=C[N+](=O)[O-])NCCSCc1nccs1

logP [11]: 2.16
Compound: C=C(C)C(=O)OCc1ccccc1

logD [12]: 0.84
Compound: CNC1CC(C)(C)N(O)C(C)(C)C1

logD [13]: -0.07
Compound: CN1C=CSC1NS(=O)(=O)c1ccc(N)cc1 (stereo not drawn)

Compound: Clc1cccc2ccccc12
logP [14]: 3.9

logD [6]: 1.26
Compound: NC(=O)c1cc(Cl)ccc1NCCO

logD [15]: 1.63
Compound: COc1ccc(C(=O)CCCC(=O)O)cc1

logD [16]: 2.96
Compound: COC1=C(OC)C(=O)C(CCCCCCCCCCO)=C(C)C1=O

Compound: CCOCCOCCOP(=S)(N1CC1)N1CC1
logP [17]: 0.38

logD [18]: 2.26
Compound: Cc1ccc(CCCC(N)=O)c(O)c1

logD [12]: 0.56
Compound: CC1(C)CC(N)CC(C)(C)N1O

Compound: CC(C)[C@@H](C(=O)N[C@@H](Cc1ccccc1)C(=O)NC(=O)NCCCl)N(CCCl)N=O
logP [1]: 3.47

logP [19]: 2.04
Compound: Cc1ccc(CC(=O)O)cc1

logD [12]: 0.53
Compound: CN(CCO)C1CC(C)(C)N(O)C(C)(C)C1

logP [20]: 4.56
Compound: C=C1C2CCC(C2)C1(C)C (stereo not drawn)

logP [21]: 6.2
Compound: Cc1c(Cl)cc(C(C)C)c(Cl)c1Cl

logD [9]: 1.77
Compound: O=C1CC2(CCCC2)C(=O)N1Oc1ccccc1

logD ([10]; pH 7.5): 3.97
Compound: O=C(NCCCOc1cccc(N2CCCCC2)c1)c1ccccc1

logP [22]: 1.21
Compound: O=C1NC(Cc2c[nH]c3ccccc23)C(=O)NC1Cc1ccc(O)cc1 (stereo not drawn)

logD [23]: -0.29
Compound: Nc1ncnc2c1ncn2C1CCC(CO)O1 (stereo not drawn)

logD [24]: 0.54
Compound: Nc1cc(-c2ccncc2)c[nH]c1=O

logP [25]: 0.71
Compound: CO[C@H]1N([C@H]2C[C@H](F)[C@@H](CO)O2)C(=O)NC(=O)[C@]1(C)Cl

logD [16]: 0.73
Compound: COC1=C(OC)C(=O)C(C)=CC1=O

logD [3]: 2.05
Compound: COC(=O)n1c(-c2cscn2)nc2ccccc21

logP [25]: 0.6
Compound: CO[C@@H]1N([C@H]2C[C@H](F)[C@@H](CO)O2)C(=O)NC(=O)[C@@]1(C)I

logD [13]: -0.58
Compound: CN1C=CC=CC1NS(=O)(=O)c1ccc(N)cc1 (stereo not drawn)

logD [2]: -1.05
Compound: CC(C)C(C)Sc1nc2c(N)ncnc2n1C1OC2COP(=O)(O)OC2C1O (stereo not drawn)

Compound: S=P(N1CCOCCOCCOCCOCCOCC1)(N1CC1)N1CC1
logP [17]: 0.75

logP [25]: 0.54
Compound: CO[C@@H]1N([C@H]2C[C@H](F)[C@@H](CO)O2)C(=O)NC(=O)[C@@]1(C)Br

logD [3]: 2.47
Compound: c1ccc2[nH]c(-c3cscn3)nc2c1

logD [26]: 0.09
Compound: Cc1cn([C@H]2C=C[C@@H](CO)O2)c(=O)[nH]c1=S

logD [8]: 3.05
Compound: CCCCc1ccc(N)cc1

logP [22]: 2.08
Compound: O=C1NC(Cc2ccccc2)C(=O)NC1Cc1ccccc1 (stereo not drawn)

logD [15]: 1.9
Compound: CCc1ccc(C(C)(O)C(=O)O)cc1 (stereo not drawn)

logD [9]: 1.26
Compound: CCON1C(=O)CC2(CCCC2)C1=O

Compound: CCOP(=S)(OCC)Oc1ccc([N+](=O)[O-])cc1
logP: 3.45

logD [24]: 1.22
Compound: CC(C)Cn1c(=O)n(C)c(=O)c2nc[nH]c21

Compound: OC(CN1C2CCCCCCC21)Cn1ccnc1 (stereo not drawn)
logD [7]: 1.84

logP [27]: 1.19
Compound: CNc1cnn(-c2ccccc2)c(=O)c1Cl

logD [23]: 0.67
Compound: O=C(Nc1ccn([C@H]2C[C@H](O)[C@@H](CO)O2)c(=O)n1)c1ccccc1

logP [11]: 2.16
Compound: C=C(C)C(=O)OCCC(C)OC(=O)C(=C)C (stereo not drawn)

logD [26]: -0.28
Compound: O=c1[nH]c(=S)ccn1[C@H]1C=C[C@@H](CO)O1

logP [4]: -0.16
Compound: CC(=O)Nc1ccn([C@@H]2O[C@H](COC(C)=O)[C@@H](OC(C)=O)[C@@H]2OC(C)=O)c(=O)n1

logD [15]: 1.37
Compound: CCC(O)(C(=O)O)c1ccccc1 (stereo not drawn)

logD [18]: 3.5
Compound: O=[N+]([O-])c1ccc2c(O)cccc2c1

logD [5]: 1.85
Compound: CCCCCC/N=C(N)/N=C(\N)Nc1ccc(Cl)cc1

logD [24]: 0.08
Compound: CCc1[nH]c(=O)[nH]c1C(=O)c1ccncc1

Compound: Oc1c(Cl)cc(Cl)c2ccccc12
logD [18]: 4.76

logP [27]: 2.67
Compound: CN(C)c1cnn(-c2cccc(C(F)(F)F)c2)c(=O)c1Cl

logP [22]: 0.25
Compound: O=C1CNC(=O)C(Cc2ccccc2)N1 (stereo not drawn)

logP [21]: 5.6
Compound: Cc1cc(Cl)c(C(C)C)cc1Cl

logD [5]: 2.63
Compound: CCC/N=C(N)/N=C(\N)Nc1ccc(Cl)cc1

Compound: CCOCCOCCOP(=S)(N1CC1(C)C)N1CC1(C)C (stereo not drawn)
logP [17]: 0.47

logP [14]: 4.56
Compound: Clc1ccc2cccc(Cl)c2c1

logP [19]: 2.09
Compound: CC(C)C(C(=O)O)c1ccc([N+](=O)[O-])cc1 (stereo not drawn)

logP [4]: -1.81
Compound: O=c1ccn(C2OC(CO)C(O)C2O)c(=O)[nH]1 (stereo not drawn)

Compound: O=NN(CCCl)C(Cc1ccccc1)C(=O)NC(=O)NCCCl (stereo not drawn)
logP [1]: 3.25

logP [11]: 3.34
Compound: C=C(C)C(=O)OCC(O)COc1ccc(C(C)(C)c2ccc(OCC(O)COC(=O)C(=C)C)cc2)cc1 (stereo not drawn)

Compound: CC1(C)C(C=C(Cl)Cl)C1C(=O)OCc1cccc(Oc2ccccc2)c1 (stereo not drawn)
logP: 5.85

logP [27]: 2.41
Compound: Nc1cnn(-c2cccc(C(F)(F)F)c2)c(=O)c1Cl

logD [23]: -1.71
Compound: O=c1[nH]cnc2c1ncn2[C@H]1C[C@H](O)[C@@H](CO)O1

Compound: OC(CN1C2CCCC21)Cn1ccnc1 (stereo not drawn)
logD [7]: 0.37

logP [21]: 6.8
Compound: Cc1c(Cl)c(Cl)c(C(C)C)c(Cl)c1Cl

Compound: [cH:1]1[c:2]([Cl:3])[c:4]2[cH:5][cH:6][cH:7][c:8]([Cl:9])[c:10]2[cH:11][cH:12]1
logP [14]: 4.67

logD [8]: 2.31
Compound: CC(C)c1ccc(N)cc1

logP [20]: 4.85
Compound: CC1(C)C2CC3C(C2)C31C

logD [13]: 1.63
Compound: CN(c1nccs1)S(=O)(=O)c1ccc(N)cc1

logD [16]: 2.55
Compound: COc1c(O)c(C)c(CCCCCCCCCCO)c(O)c1OC

logP [20]: 4.63
Compound: C=C1CCC2(C(C)C)CC12 (stereo not drawn)

logD [6]: 3.15
Compound: Cc1ccc(SCCNc2ccccc2C(N)=O)cc1

logD ([10]; pH 9.0): 0.6
Compound: CNC(=NC#N)NCCSCc1csc(N=C(N)N)n1

logP [19]: 2.94
Compound: CCCCOc1ccc(CC(=O)O)cc1
